Reference: patent US20160158377A1, “BCL-XL Inhibitory Compounds and Antibody Drug Conjugates Including the Same” (AbbVie Inc., priority 2014, published 2016)
Like-named read-outs stand apart in the source and are kept apart here.

Legend:
[1] = target: Bcl-xL (Homo sapiens, UniProt Q07817); experiment: TR-FRET Bcl-xL binding assay (competition with probe F-Bak)
Method: For the assay, test compounds were serially diluted in DMSO starting at 50 μM (2× starting concentration; 10% DMSO) and 10 μL transferred into a 384-well plate. 10 μL of a protein/probe/antibody mix was then added to each well at final concentrations listed below:
The samples were then mixed on a shaker for 1 minute and incubated for an additional 2 hours at room temperature. For each assay plate, a probe/antibody and protein/antibody/probe mixture were included as a negative and a positive control, respectively. Fluorescence was measured on the Envision (Perkin Elmer) using a 340/35 nm excitation filter and 520/525 (F-Bak) and 495/510 nm (Tb-labeled anti-his antibody) emission filters. Dissociation constants (Ki) were determined using Wang's equation (Wang, 1995, FEBS Lett. 360:111-114). The TR-FRET assay can be performed in the presence of varying concentrations of human serum (HS) or fetal bovine serum (FBS). Compounds were tested both without HS and in the presence of 1% HS.

[2] = test system: Molt-4 human acute lymphoblastic leukemia cells; experiment: Molt-4 cell viability assay; assay type: cell-based; conditions: 10% human serum, 48 hours, CellTiter-Glo, read-out: Molt-4 Viability EC50 (nM, 10% HS)
Method: In one exemplary set of conditions, Molt-4 (ATCC, Manassas, Va.) human acute lymphoblastic leukemia cells were plated 12,500 cells per well in 384-well tissue culture plates (Corning, Corning, N.Y.) in a total volume of 25 μL tissue culture medium supplemented with 10% human serum (Sigma-Aldrich, St. Louis, Mo.) and treated with a 3-fold serial dilution of the compounds of interest from 10 μM to 0.0005 μM. Each concentration was tested in duplicate at least 3 separate times. The number of viable cells following 48 hours of compound treatment was determined using the CellTiter-Glo® Luminescent Cell Viability Assay according to the manufacturer's recommendations (Promega Corp., Madison, Wis.). Compounds were tested in the presence of 10% HS.

[3] = in the presence of 1% human serum (HS), read-out: Bcl-xL Binding Ki (nM, 1% HS)
[4] = without human serum, read-out: Bcl-xL Binding Ki

Chain of Bcl-xL (Q07817 whole entry): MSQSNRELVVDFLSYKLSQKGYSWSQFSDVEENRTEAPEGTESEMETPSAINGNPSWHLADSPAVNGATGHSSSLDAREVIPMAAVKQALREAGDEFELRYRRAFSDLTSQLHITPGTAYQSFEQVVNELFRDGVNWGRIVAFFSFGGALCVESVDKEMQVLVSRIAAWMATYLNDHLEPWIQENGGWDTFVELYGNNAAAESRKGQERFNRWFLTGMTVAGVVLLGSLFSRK

Structure (SMILES)	Ki [1, 3] [nM]	Ki [1, 4] [nM]	EC50 [2] [nM]
CNCCOC12CC3(C)CC(C)(CC(Cn4ncc(-c5ccc(-c6ccc7c(c6)N(C(=O)Nc6nc8ccccc8s6)CCO7)nc5C(=O)O)c4C)(C3)C1)C2 [Compound W3.02]	0.047	< 0.001	0.5
Cc1c(-c2ccc(N3CCn4cnc(C(=O)Nc5nc6ccccc6s5)c4C3)nc2C(=O)O)cnn1CC12CC3(C)CC(C)(C1)CC(OCCN)(C3)C2 [Compound W3.04, 3-(1-{[3-(2-aminoethoxy)-5,7-dimethyltricyclo[3.3.1.1^3,7]dec-1-yl]methyl}-5-methyl-1H-pyrazol-4-yl)-6-[1-(1,3-benzothiazol-2-ylcarbamoyl)-5,6-dihydroimidazo[1,5-a]pyrazin-7(8H)-yl]pyridine-2-carboxylic acid]	0.049	< 0.001	58.9
Cc1c(-c2ccc(N3CCc4c(O)ccc(C(=O)Nc5nc6ccccc6s5)c4C3)nc2C(=O)O)cnn1CC12CC3(C)CC(C)(C1)CC(OCCN)(C3)C2 [Compound W3.05, 3-(1-{[3-(2-aminoethoxy)-5,7-dimethyltricyclo[3.3.1.1^3,7]dec-1-yl]methyl}-5-methyl-1H-pyrazol-4-yl)-6-[8-(1,3-benzothiazol-2-ylcarbamoyl)-5-hydroxy-3,4-dihydroisoquinolin-2(1H)-yl]pyridine-2-carboxylic acid]	0.23	0.02	79
COCCOC12CC3(C)CC(C)(CC(Cn4ncc(-c5ccc(N6CCc7cc(N8CCC(N)C8)cc(C(=O)Nc8nc9ccccc9s8)c7C6)nc5C(=O)O)c4C)(C3)C1)C2 (stereo not drawn) [Compound W3.17, 6-[6-(3-aminopyrrolidin-1-yl)-8-(1,3-benzothiazol-2-ylcarbamoyl)-3,4-dihydroisoquinolin-2(1H)-yl]-3-(1-{[3-(2-methoxyethoxy)-5,7-dimethyltricyclo[3.3.1.1^3,7]dec-1-yl]methyl}-5-methyl-1H-pyrazol-4-yl)pyridine-2-carboxylic acid]	2.3	0.49	–
CNCCOC12CC3(C)CC(C)(CC(Cn4ncc(-c5ccc(N6CCc7cc(OC)cc(C(=O)Nc8nc9ccccc9s8)c7C6)nc5C(=O)O)c4C)(C3)C1)C2 [Compound W3.22, 6-[8-(1,3-benzothiazol-2-ylcarbamoyl)-6-methoxy-3,4-dihydroisoquinolin-2(1H)-yl]-3-[1-({3,5-dimethyl-7-[2-(methylamino)ethoxy]tricyclo[3.3.1.1^3,7]dec-1-yl}methyl)-5-methyl-1H-pyrazol-4-yl]pyridine-2-carboxylic acid]	0.108	< 0.01	–
Cc1c(-c2ccc(N3CCc4cccc(C(=O)Nc5nc6ccccc6s5)c4C3)nc2C(=O)O)cnn1CC12CC3(C)CC(C)(C1)CC(OCCNCCS(=O)(=O)N(C)C)(C3)C2 [Compound W3.36, 6-(8-(benzo[d]thiazol-2-ylcarbamoyl)-3,4-dihydroisoquinolin-2(1H)-yl)-3-(1-((3-(2-((2-(N,N-dimethylsulfamoyl)ethyl)amino)ethoxy)-5,7-dimethyladamantan-1-yl)methyl)-5-methyl-1H-pyrazol-4-yl)picolinic acid]	–	–	6.9
Cc1c(-c2ccc(N3CCc4cccc(C(=O)Nc5nc6ccccc6s5)c4C3)nc2C(=O)O)cnn1CC12CC3(C)CC(C)(C1)CC(NC(=O)CN)(C3)C2 [Compound W3.40, 3-(1-{[3-(2-aminoacetamido)-5,7-dimethyltricyclo[3.3.1.1^3,7]decan-1-yl]methyl}-5-methyl-1H-pyrazol-4-yl)-6-{8-[(1,3-benzothiazol-2-yl)carbamoyl]-3,4-dihydroisoquinolin-2(1H)-yl}pyridine-2-carboxylic acid]	1.1	0.024	–
Cc1c(-c2ccc(N3CCc4cccc(C(=O)Nc5nc6ccccc6s5)c4C3)nc2C(=O)O)cnn1CC12CC3(C)CC(C)(CC(CCCN)(C3)C1)C2 [Compound W3.42, 3-(1-{[3-(3-aminopropyl)-5,7-dimethyltricyclo[3.3.1.1^3,7]dec-1-yl]methyl}-5-methyl-1H-pyrazol-4-yl)-6-[8-(1,3-benzothiazol-2-ylcarbamoyl)-3,4-dihydroisoquinolin-2(1H)-yl]pyridine-2-carboxylic acid]	4.36	0.15	–

Now from value to compound:

Ki [1, 3] [nM]	Ki [1, 4] [nM]	EC50 [2] [nM]	Structure (SMILES)
0.009	< 0.001	0.3	CNCCOC12CC3(C)CC(C)(CC(Cn4ncc(-c5ccc(-c6ccc7c(c6)N(C(=O)Nc6nc8ccccc8s6)CCC7)nc5C(=O)O)c4C)(C3)C1)C2 [Compound W3.01, 6-[1-(1,3-benzothiazol-2-ylcarbamoyl)-1,2,3,4-tetrahydroquinolin-7-yl]-3-[1-({3,5-dimethyl-7-[2-(methylamino)ethoxy]tricyclo[3.3.1.1^3,7]dec-1-yl}methyl)-5-methyl-1H-pyrazol-4-yl]pyridine-2-carboxylic acid]
0.019	< 0.001	1.4	CNCCOC12CC3(C)CC(C)(CC(Cn4ncc(-c5ccc(-c6ccc7c(c6)N(C(=O)Nc6nc8ccccc8s6)CCN7C)nc5C(=O)O)c4C)(C3)C1)C2 [Compound W3.03, 6-[4-(1,3-benzothiazol-2-ylcarbamoyl)-1-methyl-1,2,3,4-tetrahydroquinoxalin-6-yl]-3-[1-({3,5-dimethyl-7-[2-(methylamino)ethoxy]tricyclo[3.3.1.1^3,7]dec-1-yl}methyl)-5-methyl-1H-pyrazol-4-yl]pyridine-2-carboxylic acid]
0.22	< 0.001	3.8	CNCCOC12CC3(C)CC(C)(CC(Cn4ncc(-c5ccc(-c6ccc7cccc(C(=O)Nc8nc9ccccc9s8)c7c6)nc5C(=O)O)c4C)(C3)C1)C2 [Compound W3.06, 6-[8-(1,3-benzothiazol-2-ylcarbamoyl)naphthalen-2-yl]-3-[1-({3,5-dimethyl-7-[2-(methylamino)ethoxy]tricyclo[3.3.1.1^3,7]dec-1-yl}methyl)-5-methyl-1H-pyrazol-4-yl]pyridine-2-carboxylic acid]
0.0259	< 0.001	–	CNCCOC12CC3(C)CC(C)(CC(Cn4ncc(-c5ccc(-c6cnc7cccc(C(=O)Nc8nc9ccccc9s8)c7c6)nc5C(=O)O)c4C)(C3)C1)C2 [Compound W3.10, 6-[5-(1,3-benzothiazol-2-ylcarbamoyl)quinolin-3-yl]-3-[1-({3,5-dimethyl-7-[2-(methylamino)ethoxy]tricyclo[3.3.1.1^3,7]dec-1-yl}methyl)-5-methyl-1H-pyrazol-4-yl]pyridine-2-carboxylic acid]
0.14	0.014	–	CNCCN(C)c1cc2c(c(C(=O)Nc3nc4ccccc4s3)c1)CN(c1ccc(-c3cnn(CC45CC6(C)CC(C)(C4)CC(OCCOC)(C6)C5)c3C)c(C(=O)O)n1)CC2 [Compound W3.21, 6-[8-(1,3-benzothiazol-2-ylcarbamoyl)-6-{methyl[2-(methylamino)ethyl]amino}-3,4-dihydroisoquinolin-2(1H)-yl]-3-(1-{[3-(2-methoxyethoxy)-5,7-dimethyltricyclo[3.3.1.1^3,7]dec-1-yl]methyl}-5-methyl-1H-pyrazol-4-yl)pyridine-2-carboxylic acid]
1.1	0.021	–	Cc1c(-c2ccc(-c3ccc4nccc(C(=O)Nc5nc6ccccc6s5)c4c3)nc2C(=O)O)cnn1CC12CC3(C)CC(C)(C1)CC(OCCN)(C3)C2 [Compound W3.23, 3-(1-{[3-(2-aminoethoxy)-5,7-dimethyltricyclo[3.3.1.1^3,7]dec-1-yl]methyl}-5-methyl-1H-pyrazol-4-yl)-6-[4-(1,3-benzothiazol-2-ylcarbamoyl)quinolin-6-yl]pyridine-2-carboxylic acid]
–	–	10.7	Cc1c(-c2ccc(N3CCc4cccc(C(=O)Nc5nc6ccccc6s5)c4C3)nc2C(=O)O)cnn1CC12CC3(C)CC(C)(C1)CC(OCCNCCC(=O)N(C)C)(C3)C2 [Compound W3.38, 6-[8-(1,3-benzothiazol-2-ylcarbamoyl)-3,4-dihydroisoquinolin-2(1H)-yl]-3-(1-{[3-(2-{[3-(dimethylamino)-3-oxopropyl]amino}ethoxy)-5,7-dimethyltricyclo[3.3.1.1^3,7]dec-1-yl]methyl}-5-methyl-1H-pyrazol-4-yl)pyridine-2-carboxylic acid]
0.07	< 0.01	–	Cc1c(-c2ccc(-c3cnc4cccc(C(=O)Nc5nc6ccccc6s5)c4c3)nc2C(=O)O)cnn1CC12CC3(C)CC(C)(C1)CC(OCCN)(C3)C2 [Compound W3.43, 3-(1-{[3-(2-aminoethoxy)-5,7-dimethyltricyclo[3.3.1.1^3,7]decan-1-yl]methyl}-5-methyl-1H-pyrazol-4-yl)-6-{5-[(1,3-benzothiazol-2-yl)carbamoyl]quinolin-3-yl}pyridine-2-carboxylic acid]
